How the values were obtained:
C. formosanus = assay: Trail-following bioassay; format: in vivo, Coptotermes formosanus Shiraki
Protocol: (§1) C. formosanus workers were used in the initial bioassay for trail-following behavior. The trail-following bioassay was conducted on two overlapped pencil circles of radius 3 cm. The circumference of each circle passed through the center of the other circle. Each sample was streaked along one of the circles with a 4 μl-micropipette on nonabsorptive paper. A solvent (control) was streaked along the overlapping circle. After the solvent evaporated, one worker was placed in the center of overlap between the two circles. The arena was covered with a red plastic container to reduce visible light and extraneous air flow. To score the worker's activity, one point was given for each continuous 3 cm traveled by a termite over a one minute period. Three replications were performed for each fraction. A new termite was used and new circles were drawn for each trial.
(§2) Trail-following bioassays with standard 2-phenoxyethanol followed procedures that were essentially identical to those for the HPLC fraction screening bioassay described above, except that each trial was replicated 10 times; and that workers and soldiers of both C. formosanus and Reticulitermes spp. were tested. Four concentrations of 2-phenoxyethanol, 0.32, 0.032, 0.0032, 0.00032 μg/cm were used in the bioassays.

Reticulitermes spp. = assay: Trail-following bioassay; format: in vivo
Protocol: as §1, §2

Mucor spp. fungus [1] = assay: Antifungal filter paper disk test, trial 2 (cornmeal agar, sealed plates); format: cell-based
Protocol: A second trial was conducted with filter papers treated with naphthalene, BHT, or 2,6-di-t-butyl-4-methyl-phenol (“DBP”). A fungal suspension was prepared as in the first trial. Spore concentrations were determined with a counting chamber (Petroff-Hauser, Hauser Scientific Partnership, Horsham, Pa.). Concentrations were adjusted to approximately 10^7 spores/mL. In the first trial fungus grew on SDA quickly, forming a thick mat that soon filled the entire petri dish. Therefore, in the second trial cornmeal agar (CMA, Difco Laboratories, Detroit, Mich.) was used to slow the growth of the fungus during the six-day observation period. A thin layer of the spore suspension was spread over the surface of each of 24 cornmeal agar plates using a turntable and bent glass rod, as previously described.
(§3) Filter paper disks were treated with naphthalene, BHT, or DBP at rates of 2 μg, 20 μg, or 200 μg, prepared as in the first trial. On each plate were placed four filter paper disks spaced equidistant from one another (one disk containing each of the three application rates of one of the test compounds, and one disk containing only the hexane control). Each plate was then covered and sealed with parafilm to reduce the release of volatile compounds. The concentration of naphthalene in the headspace was 0.04 μg/cm^3; except in trial 3 below, in which the concentration was 34.6 μg/cm^3, about 700 times the concentration we have observed in termite nest materials. The growth of fungus on and around each filter paper disk was recorded three, four, and five days after treatment. The experiment was then repeated, increasing the rates of naphthalene, BHT, and DBP to 200 μg, 600 μg, and 1000 μg (trial 3).
(§4) Fungal growth on each filter paper disk was recorded by making tracings of the disks, inking in areas with visible fungal growth. The fraction of each disk covered by fungus was measured by making photocopy enlargements of these drawings, cutting out the enlarged disks, weighing the entire circle, cutting out the inked areas of the circle (corresponding to fungal growth), and weighing the latter. The fraction of each circle covered with fungus was then calculated as the ratio of these weights. (The weight of the photocopy toner was negligible.)
(§5) Coverage of filter paper disks was analyzed by the ANOVA procedure (SAS Institute, Version 6.11, Cary, N.C.). Tukey's Studentized Range (HSD) Test was used for comparison of mean separations (α=0.05).

Mucor spp. fungus [2] = assay: Antifungal filter paper disk test, trial 3 (cornmeal agar, sealed plates, increased rates); format: cell-based; conditions: for Fungal coverage of treated disks: trial 3, fourth day
Protocol: A second trial was conducted with filter papers treated with naphthalene, BHT, or 2,6-di-t-butyl-4-methyl-phenol (“DBP”). A fungal suspension was prepared as in the first trial. Spore concentrations were determined with a counting chamber (Petroff-Hauser, Hauser Scientific Partnership, Horsham, Pa.). Concentrations were adjusted to approximately 10^7 spores/mL. In the first trial fungus grew on SDA quickly, forming a thick mat that soon filled the entire petri dish. […] A thin layer of the spore suspension was spread over the surface of each of 24 cornmeal agar plates using a turntable and bent glass rod, as previously described.
as §3, with “The growth of fungus on and around each filter paper disk was recorded three, four, and five days after treatment.” left out
as §4, §5

Mucor spp. fungus [3] = assay: Antifungal filter paper disk test, trial 1 (Sabouraud dextrose agar); format: cell-based
Protocol: Mucor was isolated from a Formosan termite nest in our laboratory, a nest originally collected from a cottonwood tree in New Orleans, La. The fungus comprised a white mat that covered large areas of the nest that had been exposed to air and water. Fungus was scraped from the nest and suspended in distilled, de-ionized water with a Pasteur pipette. This suspension was streaked on Sabouraud dextrose agar (“SDA”) (Difco Laboratories, Detroit, Mich.) in 100×15 mm plates containing 20 mL SDA. Pure cultures were obtained from individual colonies on these plates as needed. Cultures were maintained on SDA plates in a 27° C. incubator without light until used.
Filter paper disks (Whatman #1, 1.5 cm) were treated with naphthalene, butylated hydroxytoluene (BHT), dioctyl phthalate, or adipic dioctyl ester, at rates of 2 μg, 20 μg, or 200 μg, dissolved in 100 μL hexane. Controls were treated with hexane alone. For each treatment, just prior to testing for antifungal properties, 1 mL of the hexane solution and ten filter paper disks were placed in a vial, and N2 was used to evaporate the hexane.
A suspension was prepared by scraping Mucor conidia (spores) from the culture plates, and mixing into distilled, deionized water with a Pasteur pipette. A thin layer of this suspension was spread over the surface of each of 130 SDA plates by placing each plate onto an inoculation turntable (Fisher Scientific, Hampton, N.H.), pipetting 0.2 mL of the suspension into the center of the plate, spinning the turntable, and spreading the suspension onto the agar with a bent glass rod. The plates were allowed to dry for two hours. A treated filter paper disk was then placed in the center of each plate (10 plates/treatment), and the plates were incubated at 27° C. The extent to which each filter paper disk was covered by fungus was determined by visual inspection (by the method described in greater detail below) after four, five, and six days.
as §4, §5

ants = assay: Killing of ants; conditions: in vivo
[4] = trial 2, 0 μg disk (hexane only) on the same sealed plate as the compound's treated disks
[5] = trial 3, 0 μg disk (hexane only) on the same sealed plate as the compound's treated disks

Row | SMILES | Fraction Covered, Day 3 (mean percentage of filter paper disk surface covered by fungus) (Mucor spp. fungus [1]; [4]) [%] | Fraction Covered, Day 4 (mean percentage of filter paper disk surface covered by fungus) (Mucor spp. fungus [1]; [4]) [%] | Fraction Covered, Day 5 (mean percentage of filter paper disk surface covered by fungus) (Mucor spp. fungus [1]; [4]) [%] | Fraction Covered, Day 3 (mean percentage of filter paper disk surface covered by fungus) (Mucor spp. fungus [1]; trial 2, rate 2 μg per disk) [%] | Fraction Covered, Day 4 (mean percentage of filter paper disk surface covered by fungus) (Mucor spp. fungus [1]; trial 2, rate 2 μg per disk) [%] | Fraction Covered, Day 5 (mean percentage of filter paper disk surface covered by fungus) (Mucor spp. fungus [1]; trial 2, rate 2 μg per disk) [%] | Fraction Covered, Day 3 (mean percentage of filter paper disk surface covered by fungus) (Mucor spp. fungus [1]; trial 2, rate 20 μg per disk) [%] | Fraction Covered, Day 4 (mean percentage of filter paper disk surface covered by fungus) (Mucor spp. fungus [1]; trial 2, rate 20 μg per disk) [%] | Fraction Covered, Day 5 (mean percentage of filter paper disk surface covered by fungus) (Mucor spp. fungus [1]; trial 2, rate 20 μg per disk) [%] | Fraction Covered, Day 3 (mean percentage of filter paper disk surface covered by fungus) (Mucor spp. fungus [1]; trial 2, rate 200 μg per disk) [%] | Fraction Covered, Day 4 (mean percentage of filter paper disk surface covered by fungus) (Mucor spp. fungus [1]; trial 2, rate 200 μg per disk) [%] | Fraction Covered, Day 5 (mean percentage of filter paper disk surface covered by fungus) (Mucor spp. fungus [1]; trial 2, rate 200 μg per disk) [%] | Fraction Covered, Day 3 (mean percentage of filter paper disk surface covered by fungus) (Mucor spp. fungus [2]; [5]) [%] | Fraction Covered, Day 4 (mean percentage of filter paper disk surface covered by fungus) (Mucor spp. fungus [2]; [5]) [%] | Fraction Covered, Day 5 (mean percentage of filter paper disk surface covered by fungus) (Mucor spp. fungus [2]; [5]) [%] | Fungal coverage of treated disks (Mucor spp. fungus [2]) [%] | Fraction Covered, Day 3 (mean percentage of filter paper disk surface covered by fungus) (Mucor spp. fungus [2]; trial 3, rate 200 μg per disk) [%] | Fraction Covered, Day 4 (mean percentage of filter paper disk surface covered by fungus) (Mucor spp. fungus [2]; trial 3, rate 200 μg per disk) [%] | Fraction Covered, Day 5 (mean percentage of filter paper disk surface covered by fungus) (Mucor spp. fungus [2]; trial 3, rate 200 μg per disk) [%] | Fraction Covered, Day 3 (mean percentage of filter paper disk surface covered by fungus) (Mucor spp. fungus [2]; trial 3, rate 600 μg per disk) [%] | also measured
1 | OCCOc1ccccc1 [2-phenoxyethanol] | – | – | – | – | – | – | – | – | – | – | – | – | – | – | – | – | – | – | – | – | Trail-following behavior (C. formosanus; 0.00032 μg/cm): Limited trail-following activity; Trail-following behavior (C. formosanus; C. formosanus workers and soldiers, 0.32, 0.032 and 0.0032 μg/cm): elicited trail-following behaviors; Trail-following behavior (Reticulitermes spp.; 0.00032 μg/cm): Limited trail-following activity; Trail-following behavior (Reticulitermes spp.; Reticulitermes spp. workers and soldiers, 0.32, 0.032 and 0.0032 μg/cm): elicited trail-following behaviors
2 | Cc1cc(C(C)(C)C)c(O)c(C(C)(C)C)c1 [BHT, butylated hydroxytoluene] | 93 | 94 | 96 | 85 | 90 | 90 | 93 | 95 | 98 | 95 | 99 | 100 | 59 | 100 | 100 | ~100 | 30 | 96 | 95 | 53 | Fraction Covered, Day 4 (mean percentage of filter paper disk surface covered by fungus) (Mucor spp. fungus [2]; trial 3, rate 600 μg per disk): 97%; Fraction Covered, Day 5 (mean percentage of filter paper disk surface covered by fungus) (Mucor spp. fungus [2]; trial 3, rate 600 μg per disk): 100%; Fraction Covered, Day 3 (mean percentage of filter paper disk surface covered by fungus) (Mucor spp. fungus [2]; trial 3, rate 1000 μg per disk): 16%; Fraction Covered, Day 4 (mean percentage of filter paper disk surface covered by fungus) (Mucor spp. fungus [2]; trial 3, rate 1000 μg per disk): 99%; Fraction Covered, Day 5 (mean percentage of filter paper disk surface covered by fungus) (Mucor spp. fungus [2]; trial 3, rate 1000 μg per disk): 100%; Coverage of filter paper versus the DBP or naphthalene treatments (Mucor spp. fungus [2]; trial 3, three days after treatment, P=0.0001): significantly greater; Fraction Covered, Day 4 (mean percentage of filter paper disk surface covered by fungus) (Mucor spp. fungus [3]; trial 1, rate 2 μg per disk): 70%; Fraction Covered, Day 5 (mean percentage of filter paper disk surface covered by fungus) (Mucor spp. fungus [3]; trial 1, rate 2 μg per disk): 85%; Fraction covered, Day 6 (mean percentage of filter paper disk surface covered by fungus) (Mucor spp. fungus [3]; trial 1, rate 2 μg per disk): 92%; Fraction Covered, Day 4 (mean percentage of filter paper disk surface covered by fungus) (Mucor spp. fungus [3]; trial 1, rate 20 μg per disk): 27%; Fraction Covered, Day 5 (mean percentage of filter paper disk surface covered by fungus) (Mucor spp. fungus [3]; trial 1, rate 20 μg per disk): 65%; Fraction covered, Day 6 (mean percentage of filter paper disk surface covered by fungus) (Mucor spp. fungus [3]; trial 1, rate 20 μg per disk): 76%; Fraction Covered, Day 4 (mean percentage of filter paper disk surface covered by fungus) (Mucor spp. fungus [3]; trial 1, rate 200 μg per disk): 28%; Fraction Covered, Day 5 (mean percentage of filter paper disk surface covered by fungus) (Mucor spp. fungus [3]; trial 1, rate 200 μg per disk): 56%; Fraction covered, Day 6 (mean percentage of filter paper disk surface covered by fungus) (Mucor spp. fungus [3]; trial 1, rate 200 μg per disk): 93%; Effectiveness at killing ants compared with naphthalene (ants): even more effective than naphthalene at killing ants
3 | Cc1cc(C(C)(C)C)c(O)c(C(C)(C)C)c1 [DBP, 2,6-di-t-butyl-4-methyl-phenol] | 96 | 100 | 100 | 98 | 99 | 99 | 92 | 95 | 98 | 81 | 91 | 99 | 40 | 100 | 100 | ~100 | 0 | 94 | 93 | 1 | Fraction Covered, Day 4 (mean percentage of filter paper disk surface covered by fungus) (Mucor spp. fungus [2]; trial 3, rate 600 μg per disk): 100%; Fraction Covered, Day 5 (mean percentage of filter paper disk surface covered by fungus) (Mucor spp. fungus [2]; trial 3, rate 600 μg per disk): 100%; Fraction Covered, Day 3 (mean percentage of filter paper disk surface covered by fungus) (Mucor spp. fungus [2]; trial 3, rate 1000 μg per disk): 0%; Fraction Covered, Day 4 (mean percentage of filter paper disk surface covered by fungus) (Mucor spp. fungus [2]; trial 3, rate 1000 μg per disk): 91%; Fraction Covered, Day 5 (mean percentage of filter paper disk surface covered by fungus) (Mucor spp. fungus [2]; trial 3, rate 1000 μg per disk): 97%

— patent US6352703B1, “Compositions and methods for detecting and killing termites” (Board of Supervisors of Louisiana State University and …, priority 1997, dated 2002)
